Data as given in patent publication US20240262831A1, “COMPOUNDS AND USE THEREOF FOR TREATMENT OF NEURODEGENERATIVE, DEGENERATIVE AND METABOLIC DISORDERS” (VOVA IDA THERAPEUTICS, INC., priority 2020, published 2024).

Test system: not listed separately
Experiment: Microsomal stability assay, human hepatic microsomes
Type: in vitro ADME
Settings: 1 mg/ml human hepatic microsomes, 37° C., half-life by LC-MS/MS
Procedure: The metabolic stability of some test compounds was determined in hepatic human and mouse microsomes. The compound was incubated with 1 mg/ml human or mouse hepatic microsomes at 37° C. with continuous shaking. Aliquots were removed at various time points between 5 minutes and 2 hours and acetonitrile was added to quench the reactions and precipitate the proteins. Samples were then centrifuged through 0.45 μm filter plates and half-lives were determined by LC-MS/MS.

| SMILES | Stability in human microsomes ≥15 minutes |
| --- | --- |
| CCOc1ccc(-c2ccn3ccc(C(=O)NCCCn4ccnc4C)c3n2)cc1 [SR-35784] | Yes |

Test system: not listed separately
Experiment: in vitro
Settings: mouse, tox (toxicity noted in TPrP EC50 column)

| SMILES | EC50 [nM] |
| --- | --- |
| CCOc1ccc(-c2cc(Cl)n3ncc(C(=O)NCCCn4ccnc4C)c3n2)cc1 [SR-32689] | > 900 |

Test system: PK1 neuroblastoma cells exposed to TPrP
Experiment: cells
Settings: Neuroblastoma cell, 96 h, read-out: TPrP EC50

| SMILES | EC50 [nM] |
| --- | --- |
| Cc1nccn1CCCNC(=O)c1cnn2c(=O)cc(-c3ccc4c(c3)OCO4)[nH]c12 [SR-31105] | 800 |
| O=C(NCCCn1ccnc1)c1cnn2c(C(F)(F)F)cc(-c3ccccc3)nc12 [SR-229] | 2 |
| CCOc1ccc(-c2cc(=O)c3cccc(C(=O)NCCCn4ccnc4C)c3o2)cc1 [SR-35434] | 18 |
| CCSc1ccc(-c2cc(=S)n3ncc(C(=O)NCCCn4ccnc4C)c3[nH]2)cc1 [SR-34831] | 20 |
| CCOc1ccc(-c2cc(=S)c3scc(C(=O)NCCCn4ccnc4C)c3[nH]2)cc1 [SR-34953] | 6 |
| CCOc1ccc(-c2cc(=S)n3ncc(C(=O)NCCCn4ccnc4C)c3[nH]2)cc1 [SR-32685] | 40 |
| Cc1cc(-c2ccc3c(c2)OCO3)nc2c(C(=O)NCCCn3ccnc3C)csc12 [SR-33781] | < 5 |
| CCOc1ccc(-c2cc(Cl)n3ncc(C(=O)NCCCn4ccnc4C)c3n2)cc1 [SR-32689] | 20 |
| CCOc1ccc(-c2cc(=O)n3ncc(C(=O)NCCCn4ccnc4C)c3[nH]2)cc1 [SR-32684] | 900 |
| CCOc1ccc(-c2cc(=O)n3ncc(C(=O)NCCCn4ccnc4C)c3n2C)cc1 [SR-32686] | > 2700 |
| CCOc1ccc(-c2cc(=S)c3cccc(C(=O)NCCCn4ccnc4C)c3o2)cc1 [SR-35435] | 54 |
| CCOc1ccc(-c2cc(N3CC[C@H](NC(C)=O)C3)n3ncc(C(=O)NCCCn4ccnc4C)c3n2)cc1 [SR-32688] | < 5 |
| CCOc1ccc(-c2cc(N3CC[C@@H](NC(C)=O)C3)n3ncc(C(=O)NCCCn4ccnc4C)c3n2)cc1 [SR-32687] | < 5 |
